Data as given in patent US6951916B2, “Melanocortin receptor ligands” (The Procter & Gamble Company, priority 1999, dated 2005).

Tested on: not listed separately
Experiment: Example A: treatment of an obese human subject to incur weight loss
Type: in vivo
Conditions: obese human 130 kg; intravenous injection once each day for 6 months, 15 ml aqueous solution with 5 mg/ml compound
Procedure: An obese human subject weighing 130 kg is treated by this method to incur weight loss. Specifically, once each day for a period of 6 months, the subject is administered, via intravenous injection, 15 ml of an aqueous solution comprising the following: […]

Row | Substance | weight loss at the end of the treatment period
1 | Ac-a[DYfRWGK]-NH2 [Example 1] | measurable weight loss

Target: T1, MC-4 receptor (Homo sapiens, UniProt P32245)
T1 construct: expressed in transfected cells; host or cells: HEK cells (stably transfected)
T1 sequence (P32245 whole entry): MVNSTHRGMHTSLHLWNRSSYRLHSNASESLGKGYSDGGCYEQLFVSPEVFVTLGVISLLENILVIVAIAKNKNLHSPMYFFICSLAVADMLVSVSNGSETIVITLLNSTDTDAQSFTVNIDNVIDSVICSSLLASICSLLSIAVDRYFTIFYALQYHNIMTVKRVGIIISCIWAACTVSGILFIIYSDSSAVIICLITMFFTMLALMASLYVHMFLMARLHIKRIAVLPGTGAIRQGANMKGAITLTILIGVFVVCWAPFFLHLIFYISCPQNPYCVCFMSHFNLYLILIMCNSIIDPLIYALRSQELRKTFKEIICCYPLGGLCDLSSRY
Experiment: BioTrak cAMP direct enzymeimmunoassay in HEK cells stably transfected with MC-1, MC-3 or MC-4 receptors (% cAMP relative to NDP-MSH)
Type: cell-based
Conditions: % of maximal cAMP produced by NDP-MSH; concentrations 1×10^−8 to 1×10^−4 molar; HEK cells transfected with MC-1, MC-3 or MC-4
Procedure: The NDP-MSH standard was evaluated for the level of c-AMP release at each receptor and the values for the test samples were expressed as a % of the maximal amount produced by NDP-MSH. 1R, 3R, and 4R correspond respectively to the MC-1, MC-3, and MC-4 receptors. The % c-AMP produced by each compound was measured at concentrations from 1×10^−8 to 1×10^−4 molar.
As used herein, “MC-4 agonist” and “MC-3 agonist” refers to a compound with affinity for the MC-4 receptor or MC-3 receptor, respectively, that results in measurable biological activity in cells, tissues, or organisms which contain the MC-4 or MC-3 receptor. […] One particularly useful assay is the BioTrak TM cAMP direct enzymeimmunoassay (EIA) system from Amersham Pharmacia Biotech, which quantitates the cAMP response of cells to MC ligands. This system allows the simple quantitation of total cellular cAMP measurement in cells exposed to selective ligands. Briefly summarized: HEK cells stably transfected with the MC-1, MC-3 or MC-4 receptors are plated into 96 well microtiter plates and grown overnight. Cells are dosed with the appropriate MC ligand for 1 hour and then lysed. A fraction of the lysed cell extract is transferred to the assay plate. The ELISA assay is performed according to kit instructions. Each plate contains a series of cAMP standards for calculating a standard curve, as well as a full MC agonist as a positive control for each MC receptor. cAMP activity is calculated as a % of the maximum cAMP activity of the full MC agonist control.
A compound's selectivity is determined from a comparison of its EC50 values at the relevant receptors being referenced. As used herein, use of the term “selective over the other MC receptors” means selective with respect to all of the MC-1, MC-2 and MC-5 receptors. For example, a compound having an EC50 of 8 nM at the MC-4 receptor and an EC50 of ≧80 nM at the MC-1, MC-2 and MC-5 receptors has a selectivity ratio for the MC-4 receptor over the other MC receptors of at least 1:10. Additionally, it will be recognized that selectivity may also refer to one of the MC-1, MC-2 or MC-5 receptors individually. For example, a compound having an EC50 of 8 nM at the MC-4 receptor and an EC50 of 80 nM at the MC-1 receptor has a selectivity ratio for the MC-4 receptor over the MC-1 receptor of 1:10. Such a compound is selective over the MC-1 receptor, regardless of its EC50 value for MC-2 or MC-5. Selectivity is described in more detail below and may be determined by using, for example, the software Prism v 2.0 which is available from GraphPad, Inc.

Row | Substance | selectivity shown by % cAMP activity at various concentrations at MC-1R, MC-3R and MC-4R
2 | Ac-a[DYfRWG(Orn)]-NH2 [Example 31] | selectivity of this analog for MC-4R over MC-1R
3 | Ac-aEYfRWG(Orn)-NH2 | selectivity of this analog for MC-4R over MC-1R
4 | Ac-aDYfRWGK-NH2 [Example 16] | selectivity of this analog for MC-4R over the MC-3R and MC-1R
5 | Ac-a[EYfRWGK]-NH2 [Example 5] | selectivity of this analog for MC-4R over the MC-3R and MC-1R
6 | Ac-SYSNIeEHfRWGKPV-NH2 [reference compound] | non-selective agonist
7 | Ac-a[EYfRWG(Orn)]-NH2 [Example 4] | selectivity of this analog for MC-4R over the MC-3R and MC-1R
8 | Ac-NIeDHfRWGK-NH2 [reference compound] | non-selective agonist
9 | Ac-aDYfRWK-NH2 [Example 14] | selectivity of this analog for MC-4R over MC-1R
10 | Ac-[DYfRWGK]-NH2 [Example 2] | selectivity of this analog for MC-4R over the MC-3R and MC-1R
11 | Ac-aDYfRWG(Orn)-NH2 [Example 17] | selectivity of this analog for MC-4R over MC-1R
